# Target: T1, BRD9-GFP (Homo sapiens, UniProt Q9H8M2)
# T1 construct: CHYSEL (2A cis-acting hydrolase element) remnant after GFP; mCherry is split off as a separate protein (C); expressed in transfected cells; host or cells: HEK293A cells (Invitrogen R70507), lentiviral transduction with pLenti6-BRD9-GFP-CHYSEL-mCherry, blasticidin selection
# T1 sequence (Q9H8M2 1-597): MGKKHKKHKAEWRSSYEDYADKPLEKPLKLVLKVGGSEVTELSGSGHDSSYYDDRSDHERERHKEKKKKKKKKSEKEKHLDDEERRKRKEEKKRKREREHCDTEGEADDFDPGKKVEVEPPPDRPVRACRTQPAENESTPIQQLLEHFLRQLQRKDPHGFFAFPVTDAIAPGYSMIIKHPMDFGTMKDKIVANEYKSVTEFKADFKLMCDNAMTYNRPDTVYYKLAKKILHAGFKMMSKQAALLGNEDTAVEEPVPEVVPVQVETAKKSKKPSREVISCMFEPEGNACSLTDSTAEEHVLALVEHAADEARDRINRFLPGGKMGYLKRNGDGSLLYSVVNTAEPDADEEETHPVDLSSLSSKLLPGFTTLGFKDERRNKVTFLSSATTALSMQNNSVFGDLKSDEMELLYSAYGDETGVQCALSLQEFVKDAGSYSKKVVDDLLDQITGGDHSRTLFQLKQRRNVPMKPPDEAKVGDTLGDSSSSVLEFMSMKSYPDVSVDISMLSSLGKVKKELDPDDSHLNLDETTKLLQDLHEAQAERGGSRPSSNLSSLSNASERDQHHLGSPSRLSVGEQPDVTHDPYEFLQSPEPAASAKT
# Experiment: BRD9-GFP protein abundance flow cytometry assay in HEK293A cells
# Type: cell-based
# Conditions: HEK293A-BRD9-GFP-CHYSEL-mCherry cells; for BRD9 Deg Amax %: 24 h, % protein remaining at the concentration at which maximum degradation is seen; for DC50: 24 h at 37° C., 10-point 1:3 dilution, concentration at which 50% maximal degradation was observed
# Description: Compounds of the invention were tested in the following cellular assays. The terms in Table 1 are defined as follows: DC50 refers to the concentration at which 50% maximal degradation was observed; deg Amax is the extent of degradation and the value refers to the % protein remaining at the concentration at which maximum degradation is seen.
# BRD9-GFP protein abundance flow cytometry assay in HEK293A cells: Degradation of BRD9 was measured in HEK293A cells expressing BRD9-GFP and mCherry from a stably integrated second generation bicistronic BRD9-GFP-CHYSELmCherry construct. Reduction of the GFP signal measured by flow cytometry served as readout for BRD9 degradation after degrader treatment.
# The bicistronic BRD9-GFP-CHYSEL-mCherry construct is based on a pLenti6-DEST vector backbone where a GFP-CHYSEL-mCherry cassette was synthesized and inserted downstream of the DEST cassette by Gibson assembly resulting in the new gateway compatible vector pLenti6-DEST-GFP-CHYSEL-mCherry to allow Gateway cloning with pENTR221-BRD9 (w/o ATG) to obtain the final sensor construct pLenti6-BRD9-GFP-CHYSEL-mCherry.
# HEK293 Å-BRD9-GFP-CHYSEL-mCherry sensor cells were generated by lentiviral vector transduction using the pLenti6-BRD9-GFP-CHYSEL-mCherry sensor construct described before. […] The mix was incubated for another 20 min at RT and then added to 1 ml of a freshly prepared suspension of HEK293FT cells in a well of a 6-well plate (concentration 1.2×10^6 cells/ml). 1 day after transfection, the medium was replaced with 1.5 ml of complete growth medium (DMEM high Glucose+10% FCS+1% L-Glutamine+1% NEAA+1% NaPyr.). 48 h post transfection supernatant containing viral transducing particles was collected and frozen at −80° C. […] Infection was performed with […] of collected supernatant containing viral transducing particles in 1 ml medium including 8 μg/ml polybrene. 24 h post infection, stably transfected cells were selected with blasticidin at a concentration of 8 μg/ml.
# Stable HEK293 Å-BRD9-GFP-CHYSEL-mCherry cells were maintained in complete growth medium (DMEM high Glucose+10% FCS+1% L-Glutamine+1% NEAA+1% NaPyr.) with passaging performed twice per week. On Day 0, HEK293 Å-BRD9-GFP-CHYSEL-mCherry cells were seeded at 10,000 cells/well in a 96-well microtiter plate in […] complete medium. On Day 1, cells were treated in duplicate with 10-point 1:3 dilution series of compound using the HP D300 Digital Dispenser (Tecan). DMSO concentrations were normalized across the plate to 0.1%. On Day 2, after 24 h of incubation at 37° C., treatment media was discarded, cells rinsed with 100 ul/well PBS and then detached using 40 ul trypsin/well for 5 min. Trypsin was neutralized with 100 ul/well PBS+20% FCS). Flow cytometry was performed on the samples using the Beckman Coulter CytoFLEX flow cytometer. Cell identification was then performed using forward (FSC) vs. side scatter (SSC) plots. Single cell discrimination is performed using FSC-Width (FSC-W) vs. FSC-Height (FSC-H) plots. Median GFP/mCherry ratio values for 5,000 single cells are used to determine BRD9 levels. Median GFP/mCherry ratio values from HEK293 Å-mCherry are used as a background signal and thus defining 0% BRD9 signal. Median GFP/mCherry ratio values from DMSO treated HEK293 Å-BRD9-GFP-CHYSEL-mCherry are used to define 100% BRD9 signal for subsequent DC50 curves (concentration at 50% BRD9 degradation). Concentration response curves plotting relative reduction of the GFP/mCherry ratio signal (measured by flow cytometry) versus 10 compound concentrations (starting concentration […], 3 fold dilution steps) of the compounds allowed generation of DC50 values. Data is shown in Tables 2 and 3, in which, DC50 refers to the concentration at which 50% maximal degradation was observed; deg Amax is the extent of degradation and the value refers to the % protein remaining at the concentration at which maximum degradation is seen.
Compound,BRD9 Deg Amax % [%],DC50 [nM]
COc1ccc(C(=O)N2CCC(OC3CCN(Cc4c(OC)cc(-c5cc(C)c(=O)n(C)c5)cc4OC)CC3)CC2)cc1N1CCC(=O)NC1=O [Compound A1],10.72,54
"COc1cc(-c2cc(C)c(=O)n(C)c2)ccc1C(=O)N1CCC(OC2CCN(C(=O)c3ccc(OC)c(N4CCC(=O)NC4=O)c3)CC2)CC1 [Compound A2, 1-(5-(4-((1-(4-(1,5-Dimethyl-6-oxo-1,6-dihydropyridin-3-yl)-2-methoxybenzoyl)piperidin-4-yl)oxy)piperidine-1-carbonyl)-2-methoxyphenyl)dihydropyrimidine-2,4(1H,3H)-dione]",13.39,63
"COc1cc(-c2cc(C)c(=O)n(C)c2)ccc1C(=O)N1CCN(CC2CCN(C(=O)c3ccc(OC)c(N4CCC(=O)NC4=O)c3)CC2)CC1 [Compound A3, 1-(5-(4-((4-(4-(1,5-Dimethyl-6-oxo-1,6-dihydropyridin-3-yl)-2-methoxybenzoyl)piperazin-1-yl)methyl)piperidine-1-carbonyl)-2-methoxyphenyl)dihydropyrimidine-24(1H,3H)-dione]",12.29,68
"COc1cc(-c2cn(C)c(=O)c3cnccc23)ccc1OCC1CCN(CC2CCN(C(=O)c3ccc(OC)c(N4CCC(=O)NC4=O)c3)CC2)CC1 [Compound A5, 1-(2-Methoxy-5-(4-((4-((2-methoxy-4-(2-methyl-1-oxo-1,2-dihydro-2,7-naphthyridin-4-yl)phenoxy)methyl)piperidin-1-yl)methyl)piperidine-1-carbonyl)phenyl)dihydropyrimidine-2,4(1H,3H)-dione]",18.64,19
"COc1cc(-c2cc(C)c(=O)n(C)c2)c(OC)cc1CN1CCC(OC2CCN(C(=O)COc3ccc(N4CCC(=O)NC4=O)cc3)CC2)CC1 [Compound A7, 1-(4-(2-(4-((1-(4-(1,5-Dimethyl-6-oxo-1,6-dihydropyridin-3-yl)-2,5-dimethoxybenzyl)piperidin-4-yl)oxy)piperidin-1-yl)-2-oxoethoxy)phenyl)dihydropyrimidine-2,4(1H,3H)-dione]",21.30,60
"COc1cc(-c2cc(C)c(=O)n(C)c2)cc(OC)c1CN1CCC(OC2CCN(C(=O)COc3ccc(N4CCC(=O)NC4=O)cc3)CC2)CC1 [Compound A8, 1-(4-(2-(4-((1-(4-(1,5-Dimethyl-6-oxo-1,6-dihydropyridin-3-yl)-2,6-dimethoxybenzyl)piperidin-4-yl)oxy)piperidin-1-yl)-2-oxoethoxy)phenyl)dihydropyrimidine-2,4(1H,3H)-dione]",16.25,70

# Now those with a lower DC50, led by results:
BRD9 Deg Amax % [%],DC50 [nM],Compound
14.01,4,"COc1cc(-c2cn(C)c(=O)c3cnccc23)ccc1OC1CCN(CC2CCN(C(=O)c3ccc(OC)c(N4CCC(=O)NC4=O)c3)CC2)CC1 [Compound A4, 1-(2-Methoxy-5-(4-((4-(2-methoxy-4-(2-methyl-1-oxo-1,2-dihydro-2,7-naphthyridin-4-yl)phenoxy)piperidin-1-yl)methyl)piperidine-1-carbonyl)phenyl)dihydropyrimidine-2,4(1H,3H)-dione]"
12.25,3,"COc1ccc(C(=O)N2CCC(CN3CCC(Oc4c(OC)cc(-c5cn(C)c(=O)c6cnccc56)cc4OC)CC3)CC2)cc1N1CCC(=O)NC1=O [Compound A6, 1-(5-(4-((4-(2,6-Dimethoxy-4-(2-methyl-1-oxo-1,2-dihydro-2,7-naphthyridin-4-yl)phenoxy)piperidin-1-yl)methyl)piperidine-1-carbonyl)-2-methoxyphenyl)dihydropyrimidine-2,4(1H,3H)-dione]"
20.62,2,"COc1cc(-c2cn(C)c(=O)c3cnccc23)cc(OC)c1OC1CCN(CC2CCN(C(=O)c3ccc(Cl)c(N4CCC(=O)NC4=O)c3)CC2)CC1 [Compound A9, 1-(2-Chloro-5-(4-((4-(2,6-dimethoxy-4-(2-methyl-1-oxo-1,2-dihydro-2,7-naphthyridin-4-yl)phenoxy)piperidin-1-yl)methyl)piperidine-1-carbonyl)phenyl)dihydropyrimidine-2,4(1H,3H)-dione]"
18.93,2,"COc1cc(-c2cn(C)c(=O)c3cnccc23)ccc1OC1CCN(CC2CCN(C(=O)c3ccc(Cl)c(N4CCC(=O)NC4=O)c3)CC2)CC1 [Compound A10, 1-(2-Chloro-5-(4-((4-(2-methoxy-4-(2-methyl-1-oxo-1,2-dihydro-2,7-naphthyridin-4-yl)phenoxy)piperidin-1-yl)methyl)piperidine-1-carbonyl)phenyl)dihydropyrimidine-2,4(1H,3H)-dione]"
19.45,12,"COc1cc(-c2cn(C)c(=O)c3cnccc23)ccc1OC1CCN(CC2CCN(C(=O)c3cccc(N4CCC(=O)NC4=O)c3)CC2)CC1 [Compound A11, 1-(3-(4-((4-(2-Methoxy-4-(2-methyl-1-oxo-1,2-dihydro-2,7-naphthyridin-4-yl)phenoxy)piperidin-1-yl)methyl)piperidine-1-carbonyl)phenyl)dihydropyrimidine-2,4(1H,3H)-dione]"
13.46,2,"COc1ccc(C(=O)N2CCC(CN3CCC(Oc4ccc(-c5cn(C)c(=O)c6cnccc56)cc4)CC3)CC2)cc1N1CCC(=O)NC1=O [Compound A12, 1-(2-Methoxy-5-(4-((4-(4-(2-methyl-1-oxo-1,2-dihydro-2,7-naphthyridin-4-yl)phenoxy)piperidin-1-yl)methyl)piperidine-1-carbonyl)phenyl)dihydropyrimidine-2,4(1H,3H)-dione]"
18.05,15,"COc1cc(-c2cn(C)c(=O)c(C)c2C)ccc1CN1CCN(CC2CCN(C(=O)c3ccc(OC)c(N4CCC(=O)NC4=O)c3)CC2)CC1 [Compound A13, 1-(2-Methoxy-5-(4-((4-(2-methoxy-4-(1,4,5-trimethyl-6-oxo-1,6-dihydropyridin-3-yl)benzyl)piperazin-1-yl)methyl)piperidine-1-carbonyl)phenyl)dihydropyrimidine-2,4(1H,3H)-dione]"
